System: panel of 55 breast cancer cell lines
Experiment: Cell growth inhibition assay (Cell Titer Glo, 72 h, 9 doses; GI50, TGI, LC50)
Assay type: cell-based, human
Details: value is the negative log10 of mol/L

COc1ncc(-c2ccc3nccc(-c4ccnnc4)c3c2)cc1NS(=O)(=O)c1ccc(F)cc1F [GSK2126458A]
GI50 (cell line 600MPE, censored GI50 values): 8.22
GI50 (cell line 600MPE): 8.22
GI50 (cell line AU565, censored GI50 values): 8.10
GI50 (cell line AU565): 8.10
GI50 (cell line BT20, censored GI50 values): 7.80
GI50 (cell line BT20): 7.80
GI50 (cell line BT474, censored GI50 values): 8.36
GI50 (cell line BT483, censored GI50 values): 8.94
GI50 (cell line BT549, censored GI50 values): 7.32
GI50 (cell line CAMA1, censored GI50 values): 6.97
GI50 (cell line HCC38, censored GI50 values): 7.62
GI50 (cell line HCC70, censored GI50 values): 8.13
GI50 (cell line HCC202, censored GI50 values): 9.03
GI50 (cell line HCC1143, censored GI50 values): 7.43
GI50 (cell line HCC1187, censored GI50 values): 8.30
GI50 (cell line HCC1395, censored GI50 values): 7.31
GI50 (cell line HCC1419, censored GI50 values): 8.75
GI50 (cell line HCC1428, censored GI50 values): 7.48
GI50 (cell line HCC1500, censored GI50 values): 7.11
GI50 (cell line HCC1806, censored GI50 values): 7.54
GI50 (cell line HCC1937, censored GI50 values): 7.57
GI50 (cell line HCC1954, censored GI50 values): 7.97
GI50 (cell line HCC3153, censored GI50 values): 7.36
GI50 (cell line LY2, censored GI50 values): 7.93
GI50 (cell line MCF7, censored GI50 values): 8.14
GI50 (cell line MDAMB134VI, censored GI50 values): 7.95
GI50 (cell line MDAMB157, censored GI50 values): 6.49
GI50 (cell line MDAMB175VII, censored GI50 values): 8.29
GI50 (cell line MDAMB231, censored GI50 values): 5.57
GI50 (cell line MDAMB361, censored GI50 values): 7.46
GI50 (cell line MDAMB436, censored GI50 values): 6.75
GI50 (cell line MDAMB453, censored GI50 values): 8.28
GI50 (cell line MDAMB468, censored GI50 values): 7.47
GI50 (cell line SKBR3, censored GI50 values): 8.41
GI50 (cell line SUM52PE, censored GI50 values): 8.46
GI50 (cell line SUM149PT, censored GI50 values): 7.64
GI50 (cell line SUM159PT, censored GI50 values): 7.52
GI50 (cell line SUM1315MO2, censored GI50 values): 8.02
GI50 (cell line T47D, censored GI50 values): 8.45
GI50 (cell line UACC812, censored GI50 values): 8.67
GI50 (cell line UACC893, censored GI50 values): 8.22
GI50 (cell line ZR75B, censored GI50 values): 8.31
GI50 (cell line ZR751, censored GI50 values): 8.07
